Legend:
Assay in all cases: relative viability (nuclei count vs DMSO), 5 days (fraction); higher = more cells survive
KIN001-266 + Olaparib = compound: CCN1CCC(CC1)N2C=C(N=N2)CNC3=CC4=C(C(=CN=C4C(=C3)Cl)C#N)NC5=CC(=C(C=C5)F)Cl [KIN001-266] + O=C(c1cc(Cc2n[nH]c(=O)c3ccccc23)ccc1F)N1CCN(C(=O)C2CC2)CC1 [Olaparib] (partner 8 µM)
Method in brief: (§1)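 Relative viability equals treated-well nuclei counts divided by vehicle-well nuclei counts. Counts came from 4× images of lung cancer cell lines grown in 1536-well plates for 5 days after pin-tool dosing on the day after seeding. Dosing used one drug alone or a fixed anchor-drug dose plus five library-drug doses (not always all listed) in √10 steps, and values are medians of duplicate plates.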

KIN001-266 + Trametinib = compound: CCN1CCC(CC1)N2C=C(N=N2)CNC3=CC4=C(C(=CN=C4C(=C3)Cl)C#N)NC5=CC(=C(C=C5)F)Cl [KIN001-266] + CC(=O)Nc1cccc(-n2c(=O)n(C3CC3)c(=O)c3c(Nc4ccc(I)cc4F)n(C)c(=O)c(C)c32)c1 [Trametinib] (partner 0.02 µM)
Method in brief: as §1

KIN001-266 + Pictilisib = compound: CCN1CCC(CC1)N2C=C(N=N2)CNC3=CC4=C(C(=CN=C4C(=C3)Cl)C#N)NC5=CC(=C(C=C5)F)Cl [KIN001-266] + CS(=O)(=O)N1CCN(Cc2cc3nc(-c4cccc5[nH]ncc45)nc(N4CCOCC4)c3s2)CC1 [Pictilisib] (partner 1 µM)
Method in brief: as §1

KIN001-266 + Bortezomib = compound: CCN1CCC(CC1)N2C=C(N=N2)CNC3=CC4=C(C(=CN=C4C(=C3)Cl)C#N)NC5=CC(=C(C=C5)F)Cl [KIN001-266] + CC(C)C[C@H](NC(=O)[C@H](Cc1ccccc1)NC(=O)c1cnccn1)B(O)O [Bortezomib] (partner 0.002 µM)
Method in brief: as §1

Cell Line	relative viability (KIN001-266 + Olaparib; first compound 0.08 µM)	relative viability (KIN001-266 + Olaparib; first compound 0.253 µM)	relative viability (KIN001-266 + Olaparib; first compound 0.8 µM)	relative viability (KIN001-266 + Olaparib; first compound 2.53 µM)	relative viability (KIN001-266 + Olaparib; first compound 8 µM)	relative viability (KIN001-266 + Trametinib; first compound 0.08 µM)	relative viability (KIN001-266 + Trametinib; first compound 0.253 µM)	relative viability (KIN001-266 + Trametinib; first compound 0.8 µM)	relative viability (KIN001-266 + Trametinib; first compound 2.53 µM)	relative viability (KIN001-266 + Trametinib; first compound 8 µM)	relative viability (KIN001-266 + Pictilisib; first compound 0.08 µM)	relative viability (KIN001-266 + Pictilisib; first compound 0.253 µM)	relative viability (KIN001-266 + Pictilisib; first compound 0.8 µM)	relative viability (KIN001-266 + Pictilisib; first compound 2.53 µM)	relative viability (KIN001-266 + Pictilisib; first compound 8 µM)	relative viability (KIN001-266 + Bortezomib; first compound 0.08 µM)	relative viability (KIN001-266 + Bortezomib; first compound 0.253 µM)	relative viability (KIN001-266 + Bortezomib; first compound 0.8 µM)	relative viability (KIN001-266 + Bortezomib; first compound 2.53 µM)	relative viability (KIN001-266 + Bortezomib; first compound 8 µM)
NCI-H2087	0.616	0.494	0.654	0.374	0.346	0.254	0.276	0.16	0.175	0.175	1.02	0.934	0.71	0.868	0.554	0.761	0.87	0.717	0.719	0.609
NCI-H2126	0.896	0.925	0.943	0.848	0.842	0.583	0.554	0.621	0.568	0.518	0.53	0.538	0.449	0.434	0.5	1.16	1.12	1.15	1.13	1.14
NCI-H2228	0.692	0.735	0.682	0.727	0.496	0.564	0.448	0.457	0.357	0.402	0.343	0.312	0.425	0.276	0.432	1.03	0.935	1.09	1.33	0.796
NCI-H2347	0.619	0.593	0.507	0.568	0.479	0.304	0.323	0.282	0.278	0.22	0.663	0.698	0.476	0.422	0.485	1.16	1.03	0.905	0.858	0.611
